Results as given in patent US20180050994A1 (THE JOHNS HOPKINS UNIVERSITY, priority 2013, published 2018).

Columns and labels:
hNav1.1 = target: T1, hNav1.1 (Homo sapiens, UniProt P35498); assay: Two-electrode voltage-clamp recording of hNav1.1 gating in Xenopus oocytes; type: cell-based; settings: for effect on hNav1.1 persistent current / effect on hNav1.1 opening (G-V relationship): 100 μM; for effect on hNav1.1 persistent current: analyzed at the end of a 50 ms test pulse; for effect on hNav1.1 opening (G-V relationship): significance at p<0.005; for Activation (V1/2): hNav1.1 + β1 in Xenopus oocytes, ≤1% DMSO, DMSO control −38.2 ± 1.9 mV; for Activation (V1/2) / Inactivation (V1/2): 100 μM drug; for Inactivation (V1/2): hNav1.1, steady-state inactivation, DMSO control −49.4 ± 0.3 mV
T1 construct: host or cells: Xenopus oocytes (cRNA injection)

hNav1.6 = target: T2, hNav1.6 (Homo sapiens, UniProt Q9UQD0); assay: Two-electrode voltage-clamp recording of hNav1.6 gating in Xenopus oocytes; type: cell-based; settings: for Activation (V1/2): hNav1.6, 100 μM drug, DMSO control −26.7 ± 1.1 mV; for Inactivation (V1/2): hNav1.6, steady-state inactivation, 100 μM drug, DMSO control −65.1 ± 0.8 mV
T2 construct: host or cells: Xenopus oocytes (cRNA injection)

[1] = test system: flurothyl-induced seizures in male Crl:CF1 mice; assay: Flurothyl seizure induction; type: in vivo, mouse; settings: 75 mg/kg ip
Description: (§1) Animal husbandry and drug administration. Male Crl:CF1 mice (10-12 weeks old, Charles River) were housed under a 12 hour light-dark cycle with free access to food and water and all experiments were carried out between 10 am and 4 pm. 1-[phenyl-methyl]-1H-1,2,3-triazole-4-carboxamide-5-methyl (Compound B) (Sigma Aldrich) was suspended in a 40% solution of cyclodextrin (Sigma Aldrich) in sterile saline (0.9%) and 15 minutes prior to each seizure induction paradigm, 75 mg/kg of compound B was administered via intraperitoneal injection (ip) injection. Vehicle treated animals were similarly administrated 40% cyclodextrin and served as the controls for each experiment. The Emory University Institutional Animal Care and Use Committee approved all experimental protocols involving mice.
Flurothyl Seizure induction. Latencies to flurothyl-induced seizures were determined as previously described (Neurobiol Dis 49C, 211-220 (2012)). Briefly, flurothyl (2,2,2-trifluroethylether; Sigma Aldrich) was dispensed at a rate of 20 μl/minute into a Plexiglas chamber and latencies to three behavioral phenotypes were compared between vehicle-treated and compound B-treated (75 mg/kg) mice (n=12 per group): 1) the first myoclonic jerk, 2) a generalized tonic-clonic seizure, and 3) a generalized tonic-clonic seizure with tonic extension. Similar to picrotoxin-mediated seizure induction, the myoclonic jerk is the first observable behavioral phenotype followed by the generalized tonic-clonic seizure which is characterized by a loss of postural control with rapid movement of all four limbs for at least 5s. Lastly, the generalized tonic-clonic seizure with tonic hind limb extension involves the loss of postural control and rapid movement of all four limbs followed by downward extension of the limbs parallel to the body.
(§2) Statistical analysis. A Student's t-test was used to identify statistically significant differences in latencies between vehicle- and compound B-treated groups for each seizure phenotype following administration of flurothyl and picrotoxin. […] All data are presented as the mean±s.e.m.; p values<0.05 were considered significant.

[2] = test system: picrotoxin-induced seizures in male Crl:CF1 mice; assay: Picrotoxin seizure induction; type: in vivo, mouse
Description: as §1
Seizure induction paradigms and analyses. Picrotoxin seizure induction—15 minutes prior to i.p. injection of picrotoxin (10 mg/kg, Sigma Aldrich), mice were administered vehicle or compound B (n=12 per group). Latencies to the first myoclonic jerk, forelimb clonus, and generalized tonic-clonic seizure were compared between compound B and vehicle-treated mice. The myoclonic jerk is characterized by a sudden jerk of the upper body whereas forelimb clonus involves rapid movement of the forelimbs for at least 5s. Finally, the generalized tonic-clonic seizure involves the loss of postural control with rapid movement of the limbs for at least 5s.
as §2

[3] = test system: 6 Hz psychomotor seizures in male Crl:CF1 mice; assay: 6 Hz psychomotor seizure induction; type: in vivo, mouse; settings: 17 mA
Description: as §1
6 Hz psychomotor seizure induction. Topical anesthetic (0.5% tetracaine hydrochloride ophthalmic solution) was applied to the cornea 30 minutes before testing. Fifteen minutes prior to seizure induction, mice were administrated vehicle or compound B (n=12 per group). Each mouse was manually restrained and corneal stimulation (0.2 ms pulse, 6 Hz, 3s) was performed at a current intensity of 17 mA (ECT Unit 57800; Ugo Basile, Comerio Italy). […] The mice were randomized into two groups and in the first trial one group received the vehicle whereas the other was administered compound B. The second trial was performed one week later with each group receiving the opposite treatment.
as §2

hNav1.2 = target: T3, hNav1.2 (Homo sapiens, UniProt Q99250); assay: Two-electrode voltage-clamp recording of hNav1.2 gating in Xenopus oocytes; type: cell-based; settings: for Activation (V1/2): hNav1.2, 100 μM drug, DMSO control −31.7 ± 1.2 mV; for Inactivation (V1/2): hNav1.2, steady-state inactivation, 100 μM drug, DMSO control −59.7 ± 0.4 mV
T3 construct: host or cells: Xenopus oocytes (cRNA injection)

rat hippocampal neurons = assay: Action potential threshold recordings in hippocampal neurons; type: cell-based; settings: 100 μM Compound B
Description: Action potential threshold recordings in hippocampal neurons. Hippocampal neurons were dissected from Sprague Dawley rat embryos at embryonic day 18. Cells were treated with papain (Worthington Biochemical), dissociated with a pipette and plated over coverslips coated with collagen (Life Technologies) and poly-D-Lysine (Sigma-Aldrich). Astrocyte beds were prepared at a density of 80,000 cells/ml and cultured in DMEM (Life Technologies) with 10% Fetal Bovine Serum, 6 mM glutamine for 14 days in 5% CO2 at 37° C. Total medium was changed every week. Neurons were plated over confluent astrocyte beds at a density of 150,000 cells/ml and cultured for 3 weeks in Neurobasal media (Life Technologies) supplemented with B27 and 2 mM glutaMAX. Half of the media was changed every 3-4 days. Cells were treated for 3 hours with compound B in 0.3% DMSO or control (media containing 0.3% DMSO) before recording. Coverslips were transferred to a chamber perfused at 2 ml/minute at 32° C. with ACSF containing (in mM): 140 NaCl, 5 KCl, 2 CaCl2, 2 MgCl2, 10 HEPES, and 10 Glucose (pH 7.3 adjusted with NaOH). […] Action potential thresholds were measured by a series of 100 ms, 10 pA depolarizing current injections. At the minimal current injection needed to elicit an action potential, firing threshold was determined by calculating the potential at which the rate of rise crossed 40 V/s, using AxoGraph X software. […]

hNav1.3 = target: T4, hNav1.3 (Homo sapiens, UniProt Q9NY46); assay: Two-electrode voltage-clamp recording of hNav1.3 gating in Xenopus oocytes; type: cell-based; settings: for Activation (V1/2): hNav1.3, 100 μM drug, DMSO control −24.7 ± 1.6 mV; for Inactivation (V1/2): hNav1.3, steady-state inactivation, 100 μM drug, DMSO control −52.8 ± 0.9 mV
T4 construct: host or cells: Xenopus oocytes (cRNA injection)

α1/β2/γ2 GABAA receptor = target: T5, α1/β2/γ2 GABAA receptor (Homo sapiens, UniProt P14867+P18507+P47870); assay: GABAA receptor activation in oocytes; type: cell-based; settings: 100 μM, oocytes at −70 mV; 5 μM muscimol as positive control
T5 construct: expressed in transfected cells; host or cells: oocytes
Text: Oocytes were kept at −70 mV throughout the experiment.

[4] = cited from earlier work

T5 sequence (P14867 28-456): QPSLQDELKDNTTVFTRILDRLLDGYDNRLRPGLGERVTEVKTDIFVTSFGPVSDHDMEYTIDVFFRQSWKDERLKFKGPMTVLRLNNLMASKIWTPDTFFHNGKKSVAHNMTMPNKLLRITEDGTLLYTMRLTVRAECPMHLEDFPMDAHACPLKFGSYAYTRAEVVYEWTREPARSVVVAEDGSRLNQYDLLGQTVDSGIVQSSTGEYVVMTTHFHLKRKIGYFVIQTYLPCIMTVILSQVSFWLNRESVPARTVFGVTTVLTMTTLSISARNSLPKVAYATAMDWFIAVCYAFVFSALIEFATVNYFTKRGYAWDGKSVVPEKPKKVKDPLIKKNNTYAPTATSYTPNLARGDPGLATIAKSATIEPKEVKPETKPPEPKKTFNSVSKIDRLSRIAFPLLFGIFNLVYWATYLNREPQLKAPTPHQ
T5 sequence (P47870 25-512 limits assumed): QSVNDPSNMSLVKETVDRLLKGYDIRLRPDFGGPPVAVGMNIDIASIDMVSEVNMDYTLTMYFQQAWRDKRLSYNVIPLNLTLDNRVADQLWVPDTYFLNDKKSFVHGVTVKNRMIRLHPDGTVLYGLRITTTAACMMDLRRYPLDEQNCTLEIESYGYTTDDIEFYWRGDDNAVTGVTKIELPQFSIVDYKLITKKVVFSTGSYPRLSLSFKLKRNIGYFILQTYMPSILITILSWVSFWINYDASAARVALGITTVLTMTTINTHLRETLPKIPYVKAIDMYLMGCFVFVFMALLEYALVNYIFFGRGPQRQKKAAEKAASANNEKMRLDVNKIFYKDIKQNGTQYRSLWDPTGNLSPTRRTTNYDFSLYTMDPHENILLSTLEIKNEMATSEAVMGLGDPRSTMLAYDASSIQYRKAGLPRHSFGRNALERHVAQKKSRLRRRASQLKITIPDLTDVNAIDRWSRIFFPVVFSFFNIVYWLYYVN
T5 sequence (P18507 40-475): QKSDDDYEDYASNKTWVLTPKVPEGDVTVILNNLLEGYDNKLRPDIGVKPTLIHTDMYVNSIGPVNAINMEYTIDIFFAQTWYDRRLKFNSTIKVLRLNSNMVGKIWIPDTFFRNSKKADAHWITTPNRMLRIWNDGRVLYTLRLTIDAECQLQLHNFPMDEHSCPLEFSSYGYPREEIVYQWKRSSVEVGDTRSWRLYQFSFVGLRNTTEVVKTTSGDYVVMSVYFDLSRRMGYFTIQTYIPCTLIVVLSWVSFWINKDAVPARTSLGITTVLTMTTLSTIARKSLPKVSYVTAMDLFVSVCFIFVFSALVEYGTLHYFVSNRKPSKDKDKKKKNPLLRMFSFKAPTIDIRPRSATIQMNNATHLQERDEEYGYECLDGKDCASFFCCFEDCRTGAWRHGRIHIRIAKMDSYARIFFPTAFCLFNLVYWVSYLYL

NC(=O)c1nnn(Cc2cccc(F)c2)c1N [Compound A, 1-[(3-fluorophenyl)methyl]-1H-1,2,3-Triazole-4-carboxamide-5-amine]
effect on hNav1.1 persistent current (hNav1.1): neither of these compounds influences
effect on hNav1.1 opening (G-V relationship) (hNav1.1): clearly inhibit hNav1.1 opening
Activation (V1/2) (hNav1.1): −30.8 ± 1.0 mV
Inactivation (V1/2) (hNav1.1): −50.5 ± 1.2 mV

Cc1c(C(N)=O)nnn1Cc1ccccc1 [Compound B, 1-[phenyl-methyl]-1H-1,2,3-Triazole-4-carboxamide-5-methyl]
Activation (V1/2) (hNav1.6): −23.8 ± 1.9 mV
Inactivation (V1/2) (hNav1.6): −62.6 ± 0.7 mV
increase of average latency to GTCS+ vs vehicle ([1]; p<0.0001): 56%
increase of average latency to first GTCS vs vehicle ([1]; p<0.0001): 43%
average latency to the MJ vs vehicle ([1]; p=0.6): comparable
average latency to the first GTCS ([1]; vehicle 281±19 s): 652 ± 48 s
average latency to GTCS with hind limb extension (GTCS+) ([1]; vehicle 652±38 s): 1155 ± 89 s
average latency to the first generalized tonic-clonic seizure (GTCS) ([2]; picrotoxin 10 mg/kg, Compound B 75 mg/kg ip 15 min before, vehicle 1006±106 s): 1693 ± 315 s
frequency of the behavioral seizures vs vehicle ([2]; picrotoxin, 75 mg/kg ip): no difference
increase of average latency to first GTCS vs vehicle ([2]; picrotoxin, 75 mg/kg ip, p=0.03): 41%
average latency to forelimb clonus (FC) vs vehicle ([2]; picrotoxin, 75 mg/kg ip, p=0.3): no statistically significant differences
average latency to the first myoclonic jerk (MJ) vs vehicle ([2]; picrotoxin, 75 mg/kg ip, p=0.4): no statistically significant differences
effect on hNav1.1 persistent current (hNav1.1): neither of these compounds influences
effect on hNav1.1 persistent current (hNav1.1; listed as compound B): did not alter
effect on hNav1.1 opening (G-V relationship) (hNav1.1): clearly inhibit hNav1.1 opening
Activation (V1/2) (hNav1.1): −27.4 ± 1.0 mV
depolarizing shift in channel activation voltage (hNav1.1; hNav1.1, 100 μM): ~+11 mV
Inactivation (V1/2) (hNav1.1): −49.4 ± 0.3 mV
Entry into SI (t) (hNav1.1; hNav1.1 slow inactivation, time-dependence of entry, DMSO 5.6 ± 0.3 s): 5.5 ± 0.4 s
Voltage-dependence of SI (V), V1/2 (hNav1.1; hNav1.1 slow inactivation, DMSO −43.7 ± 1.6 mV): −43.2 ± 1.3 mV
animals exhibiting behavioral seizures ([3]; 75 mg/kg ip, n=7/24, vehicle 92%): 29%
seizure severity (modified Racine scale) vs vehicle ([3]; p<0.0001): dramatically less severe
reduction in the number of mice exhibiting seizures ([3]; vs vehicle, p<0.0001): 63%
Activation (V1/2) (hNav1.2): −23.6 ± 1.1 mV
Inactivation (V1/2) (hNav1.2): −53.6 ± 1.2 mV
average action potential (firing) threshold (rat hippocampal neurons; potential at which rate of rise crosses 40 V/s, control −43.3±2.4 mV): −27.8±1.6 mV
current injection needed to elicit an action potential (rat hippocampal neurons; control 20 pA): 80 pA
Activation (V1/2) (hNav1.3): −25.8 ± 1.4 mV
Inactivation (V1/2) (hNav1.3): −50.0 ± 0.8 mV
activation of α1/β2/γ2 GABAA receptor (inward currents) (α1/β2/γ2 GABAA receptor): do not activate

OCc1cn(Cc2cccc(F)c2)nn1 [Compound C, 1-[(3-fluorophenyl)methyl]-1H-1,2,3-Triazole-4-hydroxymethyl]
effect on hNav1.1 opening (G-V relationship) (hNav1.1): no longer affects hNav1.1 opening
Activation (V1/2) (hNav1.1): −38.4 ± 1.3 mV
Inactivation (V1/2) (hNav1.1): −49.2 ± 0.6 mV

NC(=O)c1nnn(Cc2ccc(F)cc2)c1N [Compound D, 1-[(4-fluorophenyl)methyl]-1H-1,2,3-Triazole-4-carboxamide-5-amine]
effect on hNav1.1 opening (G-V relationship) (hNav1.1): not significant
Activation (V1/2) (hNav1.1): −32.5 ± 2.3 mV
Inactivation (V1/2) (hNav1.1): −49.8 ± 1.6 mV

NC(=O)c1cn(Cc2c(F)cccc2F)nn1 [Rufinamide, 1-[(2,6-difluorophenyl)methyl]-1H-1,2,3-Triazole-4-carboxamide, reference compound]
Activation (V1/2) (hNav1.6): −28.1 ± 0.8 mV
alteration of the midpoint of hNav1.6 channel availability (hNav1.6; hNav1.6, 100 μM rufinamide): about +5 mV
Inactivation (V1/2) (hNav1.6): −60.0 ± 0.7 mV
solubility in DMSO ([4]; DMSO): up to 9 mg/ml
solubility in water ([4]; water): slightly soluble
effect on hNav1.1 persistent current (hNav1.1): did not alter
effect on hNav1.1 opening (G-V relationship) (hNav1.1): dramatic depolarizing shift
Activation (V1/2) (hNav1.1): −30.6 ± 0.9 mV
Activation (V1/2) (hNav1.2): −29.5 ± 1.2 mV
Inactivation (V1/2) (hNav1.2): −57.7 ± 0.5 mV
Activation (V1/2) (hNav1.3): −24.5 ± 2.4 mV
Inactivation (V1/2) (hNav1.3): −52.6 ± 1.6 mV
activation of α1/β2/γ2 GABAA receptor (inward currents) (α1/β2/γ2 GABAA receptor): do not activate
